The source of these data is patent US20160108027A1, “SUBSTITUTED BENZOXAZOLES” (BAYER PHARMA AKTIENGESELLSCHAFT, priority 2013, published 2016).

Test [1] concerns the target T1, thrombin (Homo sapiens, UniProt P00734). Briefly: Determination of the thrombin-inhibitory activity in plasma samples (ecarin-activated). The test is classed as biochemical. As to conditions: citrate plasma, ecarin activation, fluorogenic thrombin substrate; in some cases means of individual determinations. On the procedure: To determine the inhibition of thrombin in plasma samples, plasma […] is activated by ecarin. Thrombin activity and/or its inhibition by potential inhibitors is/are then measured fluorenscently by addition of a substrate.
The substances to be tested are dissolved in various concentrations in dimethyl sulphoxide and diluted with water. In white 96-well flat-bottomed plates, 20 μl of substance dilution are mixed with 20 μl of ecarin solution (ecarin reagent, from Sigma E-0504, final concentration 20 mU per reaction) in Ca buffer (200 mM Hepes+560 mM sodium chloride+10 mM calcium chloride+0.4% PEG) or with 20 μl of Ca buffer (as unstimulated control). Furthermore, 20 μl of fluorogenic thrombin substrate (from Bachem 1-1120, final concentration 50 μmol/1) and 20 μl of citrate plasma (from Octapharma) are added, and the mixture is homogenized well. The plate is measured in a SpectraFluorplus Reader using a 360 nm excitation filter and a 465 nm emission filter every minute over 20 minutes. […] Representative activity data from this test are given in Table 2 below (in some cases as means of individual determinations): […]

The target in test [2] is T1, thrombin. Briefly: Measurement of the thrombin inhibition in buffer. The following applies: human thrombin 0.06 nmol/l in Tris buffer pH 7.4, 22° C., substrate Boc-Asp(OBzl)-Pro-Arg-AMC; in some cases means of individual determinations. The format is biochemical. On the procedure:
To determine the thrombin inhibition of the substances listed above, a biochemical test system is constructed in which the conversion of a thrombin substrate is used for determining the enzymatic activity of human thrombin. Here, thrombin cleaves aminomethylcoumarin, which is measured fluorescently, from the peptic substrate. The determinations are carried out in microtitre plates.
Substances to be tested are dissolved in various concentrations in dimethyl sulphoxide and incubated for 15 min with human thrombin (0.06 nmol/l dissolved in 50 mmol/l of Tris buffer [C,C,C-tris(hydroxymethyl)aminomethane], 100 mmol/l of sodium chloride, 0.1% BSA [bovine serum albumin], pH 7.4) at 22° C. The substrate (5 μmol/l Boc-Asp(OBzl)-Pro-Arg-AMC from Bachem) is then added. After 30 min of incubation, the sample is excited at a wavelength of 360 nm and the emission is measured at 460 nm. The measured emissions of the test mixtures with test substance are compared to the control mixtures without test substance (only dimethyl sulphoxide instead of test substance in dimethyl sulphoxide) and IC50 values are calculated from the concentration/activity relationships. Representative activity data from this test are given in Table 1 below (in some cases as means of individual determinations): […]

Molecules are shown by their SMILES.

For the compound `COc1cc(C(=O)N2CC(C)(CC(C)O)OCC2CF)cc2nc(NCc3cc(Cl)ccn3)oc12` (racemic) [Example 22, (2-{[(4-Chloropyridin-2-yl)methyl]amino}-7-methoxy-1,3-benzoxazol-5-yl) [5-(fluoromethyl)-2-(2-hydroxypropyl)-2-methylmorpholin-4-yl]methanone], the IC50 (usually the point on the concentration scale where inhibition reaches its midpoint) against thrombin [1] came to 11 nM; on thrombin [2], 1.7 nM. In the same order, the values of `COc1cc(C(=O)N2CC(C)(CCO)OCC2(C)C)cc2nc(NCc3cc(Cl)ccn3)oc12` (racemic) [Example 32, (2-{[(4-Chloropyridin-2-yl)methyl]amino}-7-methoxy-1,3-benzoxazol-5-yl) [2-(2-hydroxyethyl)-2,5,5-trimethylmorpholin-4-yl]methanone] are 36 nM and 12 nM. With `COc1cc(C(=O)N2CC(C)(CC(C)O)OCC2(C)C)cc2nc(NCc3cc(Cl)ccn3)oc12` (racemic) [Example 34, (2-{[(4-Chloropyridin-2-yl)methyl]amino}-7-methoxy-1,3-benzoxazol-5-yl) [2-(2-hydroxypropyl)-2,5,5-trimethylmorpholin-4-yl]methanone], the 50% inhibitory concentration (IC50) was determined as 37 nM at thrombin [1] and 7.3 nM against thrombin [2].

For the compound `COc1cc(C(=O)N2CC(C)(C)OCC2(C)CO)cc2nc(NCc3cc(Cl)ccn3)oc12` (racemic) [Example 38, (2-{[(4-Chloropyridin-2-yl)methyl]amino}-7-methoxy-1,3-benzoxazol-5-yl) [5-(hydroxymethyl)-2,2,5-trimethylmorpholin-4-yl]methanone], the half-maximal inhibitory concentration (IC50) at thrombin [1] was 22 nM; on thrombin [2], 13 nM. The like results for `COCC1COC(C)(C)CN1C(=O)c1cc(OC)c2oc(NCc3cc(Cl)ccn3)nc2c1` (racemic) [Example 41, (2-{[(4-Chloropyridin-2-yl)methyl]amino}-7-methoxy-1,3-benzoxazol-5-yl) [5-(methoxymethyl)-2,2-dimethylmorpholin-4-yl]methanone] were, in that order, 50 nM and 50 nM. The like results for `COc1cc(C(=O)N2CC(C)(C)OCC2CF)cc2nc(NCc3cc(Cl)ccn3)oc12` (racemic) [Example 42, (2-{[(4-Chloropyridin-2-yl)methyl]amino}-7-methoxy-1,3-benzoxazol-5-yl) [5-(fluoromethyl)-2,2-dimethylmorpholin-4-yl]methanone] were, in that order, 34 nM and 27 nM. Take `COc1cc(C(=O)N2CC(C)OCC2(C)C)cc2nc(NCc3cc(Cl)ccn3)oc12` (racemic) [Example 44, (2-{[(4-Chloropyridin-2-yl)methyl]amino}-7-methoxy-1,3-benzoxazol-5-yl)(2,5,5-trimethylmorpholin-4-yl)methanone]: at thrombin [2], it took 32 nM to reach half-maximal inhibition (IC50). Regarding `COc1cc(C(=O)N2CC(C)OCC2CC(C)(C)O)cc2nc(NCc3cc(Cl)ccn3)oc12` (racemic) [Example 55, (2-{[(4-Chloropyridin-2-yl)methyl]amino}-7-methoxy-1,3-benzoxazol-5-yl) [5-(2-hydroxy-2-methylpropyl)-2-methylmorpholin-4-yl]methanone], the figures for the 50% inhibitory concentration (IC50) against thrombin [1] and on thrombin [2] were 33 nM and 21 nM, respectively. On to `COc1cc(C(=O)N2CC(C)OCC2CCO)cc2nc(NCc3cc(Cl)ccn3)oc12` (racemic) [Example 70, (2-{[(4-Chloropyridin-2-yl)methyl]amino}-7-methoxy-1,3-benzoxazol-5-yl) [5-(2-hydroxyethyl)-2-methylmorpholin-4-yl]methanone], for which the IC50 against thrombin [1] was found to be 74 nM; against thrombin [2] it was 38 nM. As to `COc1cc(C(=O)N2CC3(CC3)NC(=O)C2C)cc2nc(NCc3cc(Cl)ccn3)oc12` (racemic) [Example 76, 7-[(2-{[(4-Chloropyridin-2-yl)methyl]amino}-7-methoxy-1,3-benzoxazol-5-yl)carbonyl]-6-methyl-4,7-diazaspiro[2.5]octan-5-one], the results for the IC50 at thrombin [1] and at thrombin [2] were 36 nM and 19 nM, respectively.

Regarding `CCC1C(=O)NC2(CC2)CN1C(=O)c1cc(OC)c2oc(NCc3cc(Cl)ccn3)nc2c1` (racemic) [Example 78, 7-[(2-{[(4-Chloropyridin-2-yl)methyl]amino}-7-methoxy-1,3-benzoxazol-5-yl)carbonyl]-6-ethyl-4,7-diazaspiro[2.5]octan-5-one], the concentration for half-maximal inhibition (IC50) against thrombin [1] was 19 nM; against thrombin [2], 13 nM. For `COc1cc(C(=O)N2CC(C)(C)NC(=O)C2CC(N)=O)cc2nc(NCc3cc(Cl)ccn3)oc12` (racemic) [Example 82, 2-{1-[(2-{[(4-Chloropyridin-2-yl)methyl]amino}-7-methoxy-1,3-benzoxazol-5-yl)carbonyl]-5,5-dimethyl-3-oxopiperazin-2-yl}acetamide], the 50% inhibitory concentration (IC50) on thrombin [2] stood at 170 nM.

For `COc1cc(C(=O)N2CC(C)(C)NC(=O)C2CC#N)cc2nc(NCc3cc(Cl)ccn3)oc12` (racemic) [Example 83, {1-[(2-{[(4-Chloropyridin-2-yl)methyl]amino}-7-methoxy-1,3-benzoxazol-5-yl)carbonyl]-5,5-dimethyl-3-oxopiperazin-2-yl}acetonitrile], the IC50 against thrombin [1] came out at 62 nM; against thrombin [2], 36 nM. Regarding `CCO[C@@H]1CC(CO)N(C(=O)c2cc(OC)c3oc(NCc4cc(Cl)ccn4)nc3c2)C1` (single isomer, unassigned) [Example 2], the values for the IC50 on thrombin [1] and on thrombin [2] were 19 nM and 6.2 nM, respectively. Compound `CCO[C@@H]1CC(CO)N(C(=O)c2cc(OC)c3oc(NCc4cc(Cl)ccn4)nc3c2)C1` (single isomer, unassigned) [Example 3] registered a 50% inhibitory concentration (IC50) on thrombin [2] of 330 nM. At thrombin [2], `CCO[C@@H]1CC(CO)N(C(=O)c2cc(OC)c3oc(NC(C)c4cc(Cl)ccn4)nc3c2)C1` (single isomer, unassigned) [Example 5] came in with a 50% inhibitory concentration (IC50) of 2800 nM. Turning to `COc1cc(C(=O)N2C[C@H](OCC(F)F)CC2CO)cc2nc(NCc3cc(Cl)ccn3)oc12` (single isomer, unassigned) [Example 7], the IC50 against thrombin [1] worked out at 70 nM; at thrombin [2], 37 nM. On thrombin [2], `[2H]C([2H])(C)O[C@@H]1CC(CO)N(C(=O)c2cc(OC)c3oc(NC(C)c4cc(Cl)ccn4)nc3c2)C1` (single isomer, unassigned) [Example 8] came in with a half-inhibitory concentration (IC50) of 2600 nM. For `[2H]C([2H])(C)O[C@@H]1CC(CC#N)N(C(=O)c2cc(OC)c3oc(NCc4cc(Cl)ccn4)nc3c2)C1` (single isomer, unassigned) [Example 9], the half-inhibitory concentration (IC50) on thrombin [1] was 13 nM; at thrombin [2] it was 9.7 nM. Turning to `COc1cc(C(=O)N2C[C@H](OC3CC3)C[C@H]2CO)cc2nc(NC(C)c3cc(Cl)ccn3)oc12` (single isomer, unassigned) [Example 14], on thrombin [2], the midpoint of inhibition, the IC50, lay at 550 nM. Consider `COc1cc(C(=O)N2C[C@H](OC3CC3)C[C@H]2CO)cc2nc(NC(C)c3cc(Cl)ccn3)oc12` (single isomer, unassigned) [Example 15], for which the half-maximal inhibitory concentration (IC50) against thrombin [1] stood at 21 nM; against thrombin [2], 6.4 nM. Regarding `COc1cc(C(=O)N2CC(C)(C)OCC2CC(C)O)cc2nc(NCc3cc(Cl)ccn3)oc12` (single isomer, unassigned) [Example 64, (2-{[(4-Chloropyridin-2-yl)methyl]amino}-7-methoxy-1,3-benzoxazol-5-yl) [5-(2-hydroxypropyl)-2,2-dimethylmorpholin-4-yl]methanone], at thrombin [2], half-maximal inhibition (IC50) required 44 nM. On the same count and under the same terms, next, `COc1cc(C(=O)N2CC(C)OCC2CC(C)O)cc2nc(NCc3cc(Cl)ccn3)oc12` (single isomer, unassigned) [Example 66, (2-{[(4-Chloropyridin-2-yl)methyl]amino}-7-methoxy-1,3-benzoxazol-5-yl) [5-(2-hydroxypropyl)-2-methylmorpholin-4-yl]methanone]: 28 nM; `COc1cc(C(=O)N2CC(C)OCC2CCO)cc2nc(NCc3cc(Cl)ccn3)oc12` (single isomer, unassigned) [Example 71, (2-{[(4-Chloropyridin-2-yl)methyl]amino}-7-methoxy-1,3-benzoxazol-5-yl) [5-(2-hydroxyethyl)-2-methylmorpholin-4-yl]methanone]: 97 nM. Still for that read-out and setting: for `COc1cc(C(=O)N2CC(C)CCC2CC2(O)CC2)cc2nc(NCc3cc(Cl)ccn3)oc12` (single isomer, unassigned) [Example 88, (2-{[(4-Chloropyridin-2-yl)methyl]amino}-7-methoxy-1,3-benzoxazol-5-yl){2-[(1-hydroxycyclopropyl)methyl]-5-methylpiperidin-1-yl}methanone] the value was 6.6 nM.
